The conditions of the data set: from C=C/C=C\[C@H](C)[C@H](O)[C@@H](C)[C@@H](CC[C@H](C)C[C@@H](C)[C@@H](O[Si](C)(C)C(C)(C)C)[C@@H](C)/C=C\[C@H](C[C@H](O[Si](C)(C)C(C)(C)C)[C@@H](C)/C=C/C=C\C(=O)O)O[Si](C)(C)C(C)(C)C)O[Si](C)(C)C(C)(C)C; ester bond; 2,4,6-trichlorobenzoyl chloride / Et3N / DMAP; toluene; 1.94 mM; 25.0 °C; 16.0 h; 2 steps.

In turn, `C=C/C=C\[C@H](C)[C@@H]1OC(=O)/C=C\C=C\[C@H](C)[C@@H](O[Si](C)(C)C(C)(C)C)C[C@H](O[Si](C)(C)C(C)(C)C)/C=C\[C@H](C)[C@H](O[Si](C)(C)C(C)(C)C)[C@H](C)C[C@@H](C)CC[C@@H](O[Si](C)(C)C(C)(C)C)C1C` (stereo in doubt) had a ring closure, yield of all isomers of 78%.

For the origin of these results see patent publication US7321046B2, “Analogs of dictyostatin, intermediates therefor and methods of synthesis thereof” (University of Pittsburgh, priority 2002, dated 2008).
